Assay [1] has as its target HCV NS3/4A protease genotype 1b (Hepatitis C virus genotype 1b, UniProt P26663). Briefly: HCV NS3/4A protease time-resolved fluorescence (TRF) assay, Ki against genotype 1b. It is filed as biochemical. The method, boiled down: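 Enzyme 0.2 nM 1b / 0.4 nM A156T / 0.025 nM 3a; 30 min preinc. w/ cpd; 25 nM TRF peptide; 2.5 h RT; ex 340/em 615 time-delayed; 4-param IC50 → Ki = IC50/(1+[S]/KM).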

For assay [2], the system named is HCV genotype 1b replicon. Put plainly: HCV replicon assay, genotype 1b replicon EC50. The assay is classed as cell-based, Hepatitis C virus. The following applies: read-out: EC50 [gt-1b]. The essentials:
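Replicon cells (Neo^r, some luciferase:Neo^r fusion); G418 removed at plating; compound dilution series, 24-48 h. Readout: RNA by 32P-probe hybridization/protection or TaqMan, normalized to cyclophilin A RNA, or luciferase. EC50 vs DMSO control, 4-parameter fit.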

Setting [3] is: IC50 [gt-1b] (nM), NS3/4A genotype 1b, enzyme 0.2 nM.
Setting [4] is: Hepatitis C virus, genotype 1b replicon.
Setting [5] is: IC50 [gt-1b], NS3/4A protease TRF assay, genotype 1b enzyme 0.2 nM.
The mark [6] stands for this setting: Hepatitis C virus, HCV replicon, genotype 1b.

SMILES strings stand for the structures. Read-outs that look alike come from different tables or passages of the source.

Consider `Cc1nc2ccccc2c2c1O[C@]1(CC2)C[C@H]2C(=O)N[C@]3(C(=O)NS(=O)(=O)C4(C)CC4)C[C@H]3/C=C\CCCCC[C@H](NC(=O)OC3(C(C)C)CC3)C(=O)N2C1` [Example 116, 1-(propan-2-yl)cyclopropyl [(2R,6S,12Z,13aS,14aR,16aS)-5′-methyl-14a-{[(1-methylcyclopropyl)sulfonyl]carbamoyl}-5,16-dioxo-1,1′,2′,5,6,7,8,9,10,11,13a,14,14a,15,16,16a-hexadecahydrospiro[cyclopropa[e]pyrrolo[1,2-a][1,4]diazacyclopentadecine-2,3′-pyrano[2,3-c]quinolin]-6-yl]carbamate], for which the IC50 in assay [1] (setting [3]) came to 0.008 nM. In addition, the EC50 in assay [2] (setting [4]) amounted to 312 pM.
`Cc1nc2ccccc2c2c1O[C@]1(CC2)C[C@H]2C(=O)N[C@]3(C(=O)NS(=O)(=O)C4(C)CC4)C[C@H]3/C=C\CCCCC[C@H](NC(=O)OC(C)C(F)(F)F)C(=O)N2C1` (stereo partly drawn) [Example 240, 1,1,1-trifluoropropan-2-yl [(2R,6S,12Z,13aS,14aR,16aS)-5′-methyl-14a-{[(1-methylcyclopropyl)sulfonyl]carbamoyl}-5,16-dioxo-1,1′,2′,5,6,7,8,9,10,11,13a,14,14a,15,16,16a-hexadecahydrospiro[cyclopropa[e]pyrrolo[1,2-a][1,4]diazacyclopentadecine-2,3′-pyrano[2,3-c]quinolin]-6-yl]carbamate] yielded an IC50 in assay [1] (setting [3]) of 0.01 nM. Also, the EC50 in assay [2] (genotype 1b replicon) amounted to 2650 pM.
Molecule `Cc1nc2cc(F)ccc2c2c1O[C@]1(CC2)C[C@H]2C(=O)N[C@]3(C(=O)NS(=O)(=O)C4(C)CC4)C[C@H]3/C=C\CCCCC[C@H](NC(=O)OCC(C)C)C(=O)N2C1` [Example 340, 2-methylpropyl [(2R,6S,12Z,13aS,14aR,16aS)-8′-fluoro-5′-methyl-14a-{[(1-methylcyclopropyl)sulfonyl]carbamoyl}-5,16-dioxo-1,1′,2′,5,6,7,8,9,10,11,13a,14,14a,15,16,16a-hexadecahydrospiro[cyclopropa[e]pyrrolo[1,2-a][1,4]diazacyclopentadecine-2,3′-pyrano[2,3-c]quinolin]-6-yl]carbamate] had an IC50 in assay [1] (setting [3]) of 0.03 nM. Besides, in assay [2] (setting [4]), the EC50 was 3230 pM.
Consider `COc1ccc2nc(C3CC3)c3c(c2c1)C(F)(F)C[C@]1(C[C@H]2C(=O)N[C@]4(C(=O)NS(=O)(=O)C5(C)CC5)C[C@H]4/C=C\CCCCC[C@H](NC(=O)OC(C)(C)C)C(=O)N2C1)O3` [Example 19, tert-Butyl (2S,6S,13aS,14aR,16aS,Z)-5′-cyclopropyl-1′,1′-difluoro-9′-methoxy-14a-(1-methylcyclopropylsulfonylcarbamoyl)-5,16-dioxo-1′,2′,3,5,6,7,8,9,10,11,13a,14,14a, 15,16,16a-hexadecahydro-1H-spiro[cyclopropa[e]pyrrolo[1,2-a][1,4]diazacyclopentadecine-2,3′-pyrano[2,3-c]quinoline]-6-ylcarbamate], for which the IC50 in assay [1] (IC50 [gt-1b] (nM), NS3/4A genotype 1b, enzyme 0.2 nM, K+ salt) is 0.018 nM. Moreover, in assay [2] (Hepatitis C virus, genotype 1b replicon, K+ salt), the 50% effective concentration (EC50) came out at 1980 pM.
In assay [1] (setting [3]), `CC(C)OC(=O)N[C@H]1CCCCC/C=C\[C@@H]2C[C@@]2(C(=O)NS(=O)(=O)C2(C)CC2)NC(=O)[C@@H]2C[C@]3(CCc4c(c(C(F)F)nc5ccccc45)O3)CN2C1=O` [Example 317, propan-2-yl [(2R,6S,12Z,13aS,14aR,16aS)-5′-(difluoromethyl)-14a-{[(1-methylcyclopropyl)sulfonyl]carbamoyl}-5,16-dioxo-1,1′,2′,5,6,7,8,9,10,11,13a,14,14a,15,16,16a-hexadecahydrospiro[cyclopropa[e]pyrrolo[1,2-a][1,4]diazacyclopentadecine-2,3′-pyrano[2,3-c]quinolin]-6-yl]carbamate] registered an IC50 of 0.023 nM. Besides, the EC50 in assay [2] (setting [4]) was 3250 pM.
In assay [1] (setting [3]), `COc1ccc2nc(C)c3c(c2c1)CC[C@]1(C[C@H]2C(=O)N[C@]4(C(=O)NS(=O)(=O)C5(C)CC5)C[C@H]4/C=C\CCCCC[C@H](NC(=O)OCC(C)C)C(=O)N2C1)O3` [Example 142, 2-methylpropyl [(2R,6S,12Z,13aS,14aR,16aS)-9′-methoxy-5′-methyl-14a-{[(1-methylcyclopropyl)sulfonyl]carbamoyl}-5,16-dioxo-1,1′,2′,5,6,7,8,9,10,11,13a,14,14a,15,16,16a-hexadecahydrospiro[cyclopropa[e]pyrrolo[1,2-a][1,4]diazacyclopentadecine-2,3′-pyrano[2,3-c]quinolin]-6-yl]carbamate] had an IC50 of 0.004 nM. Further, the EC50 in assay [2] (setting [4]) was 1140 pM.
On to `CCc1nc2ccc(OC)cc2c2c1O[C@]1(CC2)C[C@H]2C(=O)N[C@]3(C(=O)NS(=O)(=O)C4(C)CC4)C[C@H]3/C=C\CCCCC[C@H](NC(=O)c3c(C)n[nH]c3C)C(=O)N2C1` [Example 485, (2R,6S,12Z,13aS,14aR,16aS)-6-{[(3,5-dimethyl-1H-pyrazol-4-yl)carbonyl]amino}-5′-ethyl-9′-methoxy-N-[(1-methylcyclopropyl)sulfonyl]-5,16-dioxo-1,1′,2′,6,7,8,9,10,11,13a,14,15,16,16a-tetradecahydrospiro[cyclopropa[e]pyrrolo[1,2-a][1,4]diazacyclopentadecine-2,3′-pyrano[2,3-c]quinoline]-14a(5H)-carboxamide], for which the IC50 in assay [1] (setting [5]) amounted to 0.005 nM. For the same molecule, the EC50 in assay [2] (setting [6]) came out at 306 pM.
The molecule `CCc1nc2ccc(OC)cc2c2c1O[C@]1(CC2)C[C@H]2C(=O)N[C@]3(C(=O)NS(=O)(=O)C4(C)CC4)C[C@H]3/C=C\CCCCC[C@H](NC(=O)c3sccc3C)C(=O)N2C1` [Example 480, (2R,6S,12Z,13aS,14aR,16aS)-5′-ethyl-9′-methoxy-N-[(1-methylcyclopropyl)sulfonyl]-6-{[(3-methylthiophen-2-yl)carbonyl]amino}-5,16-dioxo-1,1′,2′,6,7,8,9,10,11,13a,14,15,16,16a-tetradecahydrospiro[cyclopropa[e]pyrrolo[1,2-a][1,4]diazacyclopentadecine-2,3′-pyrano[2,3-c]quinoline]-14a(5H)-carboxamide] registered a 50% inhibitory concentration (IC50) in assay [1] (setting [5]) of 0.006 nM. Further, in assay [2] (setting [6]), the EC50 is 266 pM.
The like results for `COc1ccc2nc(C)c3c(c2n1)[C@H](F)C[C@]1(C[C@H]2C(=O)N[C@]4(C(=O)NS(=O)(=O)C5(C)CC5)C[C@H]4/C=C\CCCCC[C@H](NC(=O)OC(C)(C)C)C(=O)N2C1)O3` [Example 374, tert-butyl [(2S,6S,10′R,12Z,13aS,14aR,16aS)-10′-fluoro-2′-methoxy-6′-methyl-14a-{[(1-methylcyclopropyl)sulfonyl]carbamoyl}-5,16-dioxo-1,5,6,7,8,9,9′,10,10′,11,13a,14,14a,15,16,16a-hexadecahydrospiro[cyclopropa[e]pyrrolo[1,2-a][1,4]diazacyclopentadecine-2,8′-pyrano[2,3-c][1,5]naphthyridin]-6-yl]carbamate] were, in that order, 0.012 nM and 2290 pM.
`Cc1nc2cc(F)c(F)cc2c2c1O[C@]1(CC2)C[C@H]2C(=O)N[C@]3(C(=O)NS(=O)(=O)C4(C)CC4)C[C@H]3/C=C\CCCCC[C@H](NC(=O)OCC3CC3)C(=O)N2C1` [Example 224, cyclopropylmethyl [(2R,6S,12Z,13aS,14aR,16aS)-8′,9′-difluoro-5′-methyl-14a-{[(1-methylcyclopropyl)sulfonyl]carbamoyl}-5,16-dioxo-1,1′,2′,5,6,7,8,9,10,11,13a,14,14a,15,16,16a-hexadecahydrospiro[cyclopropa[e]pyrrolo[1,2-a][1,4]diazacyclopentadecine-2,3′-pyrano[2,3-c]quinolin]-6-yl]carbamate] showed an IC50 in assay [1] (setting [3]) of 0.019 nM. The EC50 in assay [2] (setting [4]) was 6730 pM.
In assay [1] (setting [5]), `Cc1nc2ccccc2c2c1O[C@]1(CC2)C[C@H]2C(=O)N[C@]3(C(=O)NS(=O)(=O)C4(C)CC4)C[C@H]3/C=C\CCCCC[C@H](NC(=O)OC3CCC(F)(F)C3)C(=O)N2C1` (stereo partly drawn) [Example 375, 3,3-difluorocyclopentyl [(2R,6S,12Z,13aS,14aR,16aS)-5′-methyl-14a-{[(1-methylcyclopropyl)sulfonyl]carbamoyl}-5,16-dioxo-1,1′,2′,5,6,7,8,9,10,11,13a,14,14a,15,16,16a-hexadecahydrospiro[cyclopropa[e]pyrrolo[1,2-a][1,4]diazacyclopentadecine-2,3′-pyrano[2,3-c]quinolin]-6-yl]carbamate] displayed an IC50 of 0.018 nM. Moreover, the EC50 in assay [2] (HCV replicon, genotype 1b) is 6380 pM.
With `COc1ccc2nc(C)c3c(c2c1)CC[C@]1(C[C@H]2C(=O)N[C@]4(C(=O)NS(=O)(=O)C5(C)CC5)C[C@H]4/C=C\CCCCC[C@H](Nc4cccc(C)n4)C(=O)N2C1)O3` [Example 463, (2R,6S,12Z,13aS,14aR,16aS)-9′-methoxy-5′-methyl-N-[(1-methylcyclopropyl)sulfonyl]-6-[(6-methylpyridin-2-yl)amino]-5,16-dioxo-1,1′,2′,6,7,8,9,10,11,13a,14,15,16,16a-tetradecahydrospiro[cyclopropa[e]pyrrolo[1,2-a][1,4]diazacyclopentadecine-2,3′-pyrano[2,3-c]quinoline]-14a(5H)-carboxamide], the midpoint of inhibition in assay [1] (setting [5]), the IC50, lay at 0.057 nM. For the same molecule, the EC50 in assay [2] (setting [6]) is 2160 pM.
